Experimental data as given in patent US8962641B2, “Pyrimidine-substituted pyrrolidine derivatives, pharmaceutical compositions and uses thereof” (Boehringer Ingelheim International GmbH, priority 2013, dated 2015).
pIC50: −log10 of the molar value.

Target: human ACC2 (Homo sapiens (Human), UniProt O00763)
Experiment: ACC2 assay (spectrophotometric 384 well assay, NADH-linked kinetic method)
Assay type: biochemical
Conditions: hACC2 construct lacking 128 N-terminal amino acids; coupled lactate dehydrogenase/pyruvate kinase reaction, 340 nm, 25° C.
In short: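 Baculovirus/insect-cell human ACC2, anion-exchange purified; ADP formation coupled to pyruvate kinase/lactate dehydrogenase, NADH loss followed at 340 nm, 25° C, 15 min. Final 200 μM NADH and acetyl-CoA, 500 uM ATP; vehicle and no-acetyl-CoA wells set 100% and 0%.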

Chain of human ACC2 (O00763 129-2458): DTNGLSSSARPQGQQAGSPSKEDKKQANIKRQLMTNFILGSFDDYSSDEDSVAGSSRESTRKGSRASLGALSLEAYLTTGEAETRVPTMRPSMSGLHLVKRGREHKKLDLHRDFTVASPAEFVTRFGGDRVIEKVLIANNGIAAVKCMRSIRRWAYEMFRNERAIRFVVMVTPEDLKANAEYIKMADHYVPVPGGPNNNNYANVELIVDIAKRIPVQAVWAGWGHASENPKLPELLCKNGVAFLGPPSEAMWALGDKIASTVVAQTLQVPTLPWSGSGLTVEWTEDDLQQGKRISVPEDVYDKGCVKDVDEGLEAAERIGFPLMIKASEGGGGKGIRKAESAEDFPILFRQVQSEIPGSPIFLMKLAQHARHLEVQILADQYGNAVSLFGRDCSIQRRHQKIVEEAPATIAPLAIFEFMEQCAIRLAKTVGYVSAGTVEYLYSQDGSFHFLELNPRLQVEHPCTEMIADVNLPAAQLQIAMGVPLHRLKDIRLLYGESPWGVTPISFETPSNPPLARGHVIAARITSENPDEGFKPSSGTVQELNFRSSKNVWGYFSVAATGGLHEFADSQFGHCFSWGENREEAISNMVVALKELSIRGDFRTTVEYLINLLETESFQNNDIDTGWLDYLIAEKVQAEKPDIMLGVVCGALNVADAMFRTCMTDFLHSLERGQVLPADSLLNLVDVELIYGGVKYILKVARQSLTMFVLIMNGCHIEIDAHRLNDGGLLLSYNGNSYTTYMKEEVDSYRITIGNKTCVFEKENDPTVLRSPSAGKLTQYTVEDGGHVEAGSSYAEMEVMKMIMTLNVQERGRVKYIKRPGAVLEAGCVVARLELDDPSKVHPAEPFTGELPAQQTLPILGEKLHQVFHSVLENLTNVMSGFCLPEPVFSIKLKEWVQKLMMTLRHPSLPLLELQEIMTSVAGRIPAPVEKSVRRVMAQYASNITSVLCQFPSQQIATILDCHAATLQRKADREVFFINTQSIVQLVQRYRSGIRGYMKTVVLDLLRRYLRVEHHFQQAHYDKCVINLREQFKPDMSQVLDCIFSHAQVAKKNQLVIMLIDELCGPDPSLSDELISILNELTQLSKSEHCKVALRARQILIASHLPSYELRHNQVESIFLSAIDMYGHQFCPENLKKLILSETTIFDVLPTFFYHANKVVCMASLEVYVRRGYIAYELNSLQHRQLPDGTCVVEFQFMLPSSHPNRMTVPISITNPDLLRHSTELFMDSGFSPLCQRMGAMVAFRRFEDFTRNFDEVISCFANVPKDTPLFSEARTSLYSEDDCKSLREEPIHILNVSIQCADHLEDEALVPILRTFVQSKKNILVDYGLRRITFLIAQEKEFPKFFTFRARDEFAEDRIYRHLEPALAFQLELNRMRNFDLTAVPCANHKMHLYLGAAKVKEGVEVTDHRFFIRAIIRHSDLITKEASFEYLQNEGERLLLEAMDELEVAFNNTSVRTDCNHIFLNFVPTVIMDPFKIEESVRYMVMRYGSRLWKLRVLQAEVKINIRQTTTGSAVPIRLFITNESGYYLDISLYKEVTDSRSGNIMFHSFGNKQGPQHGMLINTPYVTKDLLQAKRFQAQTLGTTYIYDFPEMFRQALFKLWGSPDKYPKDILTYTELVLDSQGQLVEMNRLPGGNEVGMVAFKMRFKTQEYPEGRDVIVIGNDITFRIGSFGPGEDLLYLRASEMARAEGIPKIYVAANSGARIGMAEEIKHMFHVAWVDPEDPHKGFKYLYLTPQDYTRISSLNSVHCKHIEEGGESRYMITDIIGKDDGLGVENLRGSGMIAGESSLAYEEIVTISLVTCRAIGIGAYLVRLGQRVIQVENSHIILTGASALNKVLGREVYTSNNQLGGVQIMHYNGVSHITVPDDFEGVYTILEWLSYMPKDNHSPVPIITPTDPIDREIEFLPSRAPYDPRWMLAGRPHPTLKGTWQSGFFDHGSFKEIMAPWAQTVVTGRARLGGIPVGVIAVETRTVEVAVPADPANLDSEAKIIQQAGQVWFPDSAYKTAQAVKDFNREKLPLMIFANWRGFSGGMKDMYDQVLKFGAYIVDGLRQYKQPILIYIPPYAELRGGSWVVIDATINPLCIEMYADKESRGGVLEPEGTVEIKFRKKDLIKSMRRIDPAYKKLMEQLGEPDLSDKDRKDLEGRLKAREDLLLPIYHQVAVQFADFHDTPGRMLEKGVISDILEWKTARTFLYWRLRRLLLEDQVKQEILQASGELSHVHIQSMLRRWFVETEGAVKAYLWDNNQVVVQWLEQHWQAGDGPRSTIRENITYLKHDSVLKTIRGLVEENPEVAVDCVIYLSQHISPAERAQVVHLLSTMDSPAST

Row | SMILES | pIC50
1 | CCCNc1ncc(Cl)c(N2CC[C@@H](Oc3ccc([C@H](C)NC(C)=O)cc3)C2)n1 [Example 8.55] | 6.01
2 | CCN(C)c1ncc(Cl)c(N2CC[C@@H](Oc3ccc([C@H](C)NC(C)=O)cc3)C2)n1 [Example 8.56] | 7.22
3 | CCN(C)c1ncc(Br)c(N2CC[C@@H](Oc3ccc([C@H](C)NC(C)=O)cc3)C2)n1 [Example 8.57] | 6.00
4 | CC(=O)N[C@@H](C)c1ccc(O[C@@H]2CCN(c3nc(N(C)C)ncc3Br)C2)cc1 [Example 8.58] | 6.32
5 | CC(=O)N[C@@H](C)c1ccc(O[C@@H]2CCN(c3nc(N4CCCC4)ncc3Br)C2)cc1 [Example 8.59] | 6.37
6 | CCN(CC)c1ncc(Cl)c(N2CC[C@@H](Oc3ccc([C@H](C)NC(C)=O)cc3)C2)n1 [Example 8.60] | 7.23
7 | CC(=O)N[C@@H](C)c1ccc(O[C@@H]2CCN(c3nc(N(C)CC4CCOC4)ncc3Br)C2)cc1 (stereo partly shown) [Example 8.61] | 6.61
8 | CCCN(C)c1ncc(Br)c(N2CC[C@@H](Oc3ccc([C@H](C)NC(C)=O)cc3)C2)n1 [Example 8.62] | 6.74
9 | CC(=O)N[C@@H](C)c1ccc(O[C@@H]2CCN(c3nc(N(C)C(C)C)ncc3F)C2)cc1 [Example 8.63] | 7.15
10 | CC(=O)N[C@@H](C)c1ccc(O[C@@H]2CCN(c3nc(N(C)CCC#N)ncc3F)C2)cc1 [Example 8.64] | 6.13
11 | [2H]C([2H])([2H])N(c1ncc(F)c(N2CC[C@@H](Oc3ccc([C@H](C)NC(C)=O)cc3)C2)n1)C([2H])([2H])[2H] [Example 8.65] | 7.10
12 | COCCN(C)c1ncc(F)c(N2CC[C@@H](Oc3ccc([C@H](C)NC(C)=O)cc3)C2)n1 [Example 8.66] | 7.19
13 | CC(=O)N[C@@H](C)c1ccc(O[C@@H]2CCN(c3nc(N4CC(F)(F)C4)ncc3F)C2)cc1 [Example 8.67] | 6.89
14 | CC(=O)N[C@@H](C)c1ccc(O[C@@H]2CCN(c3nc(N(C)C4CC4)ncc3F)C2)cc1 [Example 8.68] | 7.30
15 | CC(=O)N[C@@H](C)c1ccc(O[C@@H]2CCN(c3nc(N4CCC(F)(F)C4)ncc3F)C2)cc1 [Example 8.69] | 6.99
16 | CC(=O)N[C@@H](C)c1ccc(O[C@@H]2CCN(c3nc(N4CCC(C)C4)ncc3F)C2)cc1 (stereo partly shown) [Example 8.70] | 7.23
17 | CC(=O)N[C@@H](C)c1ccc(O[C@@H]2CCN(c3ccnc(N4CCOCC4)n3)C2)cc1 [Example 8.71] | 6.70
18 | CCN(CCC#N)c1nccc(N2CC[C@@H](Oc3ccc([C@H](C)NC(C)=O)cc3)C2)n1 [Example 8.72] | 6.78
19 | CC(=O)N[C@@H](C)c1ccc(O[C@@H]2CCN(c3ccnc(N4CC(C)(C)C4)n3)C2)cc1 [Example 8.73] | 5.98
20 | CC(=O)N[C@@H](C)c1ccc(O[C@@H]2CCN(c3ccnc(N4CC(F)(F)C(F)(F)C4)n3)C2)cc1 [Example 8.74] | 6.94
21 | CC(=O)N[C@@H](C)c1ccc(O[C@@H]2CCN(c3ccnc(N4CC5(CCC5)C4)n3)C2)cc1 [Example 8.75] | 6.45
22 | CC(=O)N[C@@H](C)c1ccc(O[C@@H]2CCN(c3ccnc(N4CCC5(CC5)C4)n3)C2)cc1 [Example 8.76] | 6.81
23 | CC(=O)N[C@@H](C)c1ccc(O[C@@H]2CCN(c3ccnc(N4CCC(C#N)C4)n3)C2)cc1 (stereo partly shown) [Example 8.77] | 6.31
24 | CC(=O)N[C@@H](C)c1ccc(O[C@@H]2CCN(c3ccnc(N4CCC(C)(C)C4)n3)C2)cc1 [Example 8.78] | 6.59

Row | SMILES | pIC50
25 | CCN(CC(F)(F)F)c1nccc(N2CC[C@@H](Oc3ccc([C@H](C)NC(C)=O)cc3)C2)n1 [Example 8.79] | 7.43
26 | CC(=O)N[C@@H](C)c1ccc(O[C@@H]2CCN(c3nccc(N4CC5(CCC5)C4)n3)C2)cc1 [Example 8.80] | 6.02
27 | CC(=O)N[C@@H](C)c1ccc(O[C@@H]2CCN(c3nccc(N4CCC(C)(C)C4)n3)C2)cc1 [Example 8.81] | 6.01
28 | COCCN(CC(F)F)c1nccc(N2CC[C@@H](Oc3ccc([C@H](C)NC(C)=O)cc3)C2)n1 [Example 8.83] | 6.78
29 | CC(=O)N[C@@H](C)c1ccc(O[C@@H]2CCN(c3ccnc(N4CCOC(C)C4)n3)C2)cc1 (stereo partly shown) [Example 8.84] | 6.67
30 | CC(=O)N[C@@H](C)c1ccc(O[C@@H]2CCN(c3ccnc(N4C[C@@H](C)O[C@@H](C)C4)n3)C2)cc1 [Example 8.85] | 6.25
31 | CC(=O)N[C@@H](C)c1ccc(O[C@@H]2CCN(c3ccnc(N4CCOCC4(C)C)n3)C2)cc1 [Example 8.86] | 6.17
32 | CC(=O)N[C@@H](C)c1ccc(O[C@@H]2CCN(c3ccnc(N4[C@H](C)COC[C@H]4C)n3)C2)cc1 [Example 8.87] | 6.89
33 | CC(=O)N[C@@H](C)c1ccc(O[C@@H]2CCN(c3ccnc(N4CCOC(C(F)(F)F)C4)n3)C2)cc1 (stereo partly shown) [Example 8.88] | 6.89
34 | CC(=O)N[C@@H](C)c1ccc(O[C@@H]2CCN(c3ccnc(N4CCOC(C)(C)C4)n3)C2)cc1 [Example 8.89] | 6.53
35 | CC(=O)N[C@@H](C)c1ccc(O[C@@H]2CCN(c3ccnc(N4[C@H](C)COC[C@@H]4C)n3)C2)cc1 [Example 8.90] | 6.44
36 | CC(=O)N[C@@H](C)c1ccc(O[C@@H]2CCN(c3ccnc(N4CCSCC4)n3)C2)cc1 [Example 8.91] | 6.98
37 | CC(=O)N[C@@H](C)c1ccc(O[C@@H]2CCN(c3ncnc(N(C)CC4CC4)c3F)C2)cc1 [Example 8.92] | 7.00
38 | CC(=O)N[C@@H](C)c1ccc(O[C@@H]2CCN(c3ncnc(N(C)C)c3F)C2)cc1 [Example 8.93] | 6.36
39 | CCN(C)c1ncnc(N2CC[C@@H](Oc3ccc([C@H](C)NC(C)=O)cc3)C2)c1F [Example 8.94] | 6.78
40 | CCN(CC)c1ncnc(N2CC[C@@H](Oc3ccc([C@H](C)NC(C)=O)cc3)C2)c1F [Example 8.95] | 7.10
41 | CC(=O)N[C@@H](C)c1ccc(O[C@@H]2CCN(c3nc(N4CCOCC4)ncc3Cl)C2)cc1 [Example 8.96] | 6.58
42 | C[C@H](NC(=O)c1cncs1)c1ccc(O[C@@H]2CCN(c3ccnc(N(C)CC(F)F)n3)C2)cc1 [Example 8.97] | 7.10
43 | C[C@H](NC(=O)c1cncs1)c1ccc(O[C@@H]2CCN(c3ccnc(N(C)CCC#N)n3)C2)cc1 [Example 8.98] | 6.67
44 | C[C@H](NC(=O)c1cncs1)c1ccc(O[C@@H]2CCN(c3nc(N(C)C)ncc3F)C2)cc1 [Example 8.99] | 6.92
45 | CCN(CC)c1ncnc(N2CC[C@@H](Oc3ccc([C@H](C)NC(C)=O)cc3)C2)c1C [Example 8.100] | 6.74
46 | CCN(C)c1ncnc(N2CC[C@@H](Oc3ccc([C@H](C)NC(C)=O)cc3)C2)c1C [Example 8.101] | 6.42
47 | CCN(C)c1ncnc(N2CC[C@@H](Oc3ccc([C@H](C)NC(C)=O)cc3)C2)c1Cl [Example 8.102] | 7.06
48 | CC(=O)N[C@@H](C)c1ccc(O[C@@H]2CCN(c3ncnc(N4CCCC4)c3Cl)C2)cc1 [Example 8.103] | 6.92

Row | SMILES | pIC50
49 | CCN(CC)c1ncnc(N2CC[C@@H](Oc3ccc([C@H](C)NC(C)=O)cc3)C2)c1Cl [Example 8.104] | 7.23
50 | CCN(CCOC)c1nccc(N2CC[C@@H](Oc3ccc([C@H](C)NC(C)=O)cc3)C2)n1 [Example 8.106] | 6.80
51 | CC(=O)N[C@@H](C)c1ccc(O[C@@H]2CCN(c3ccnc(N(CCC#N)C4CC4)n3)C2)cc1 [Example 8.107] | 6.28
52 | CC(=O)N[C@@H](C)c1ccc(O[C@@H]2CCN(c3ccnc(N(CCC#N)C4CCCC4)n3)C2)cc1 [Example 8.108] | 6.43
53 | CCCN(CCC#N)c1nccc(N2CC[C@@H](Oc3ccc([C@H](C)NC(C)=O)cc3)C2)n1 [Example 8.109] | 6.61
54 | CC(=O)N[C@@H](C)c1ccc(O[C@@H]2CCN(c3ccnc(N(CCC#N)CC4CCCO4)n3)C2)cc1 (stereo partly shown) [Example 8.110] | 6.63
55 | CC(=O)N[C@@H](C)c1ccc(O[C@@H]2CCN(c3ncnc(N4CC(F)(F)C4)c3Cl)C2)cc1 [Example 8.111] | 6.94
56 | CC(=O)N[C@@H](C)c1ccc(O[C@@H]2CCN(c3ncnc(N4CCCCC4)c3Cl)C2)cc1 [Example 8.112] | 7.28
57 | CC(=O)N[C@@H](C)c1ccc(O[C@@H]2CCN(c3ncnc(N4CCC5(CC5)C4)c3Cl)C2)cc1 [Example 8.113] | 7.40
58 | CC(=O)N[C@@H](C)c1ccc(O[C@@H]2CCN(c3ncnc(N4CCC(F)(F)C4)c3Cl)C2)cc1 [Example 8.114] | 7.10
59 | CC(=O)N[C@@H](C)c1ccc(O[C@@H]2CCN(c3ncnc(N(C)CC(F)F)c3Cl)C2)cc1 [Example 8.115] | 6.78
60 | CCN(CCC#N)c1ncnc(N2CC[C@@H](Oc3ccc([C@H](C)NC(C)=O)cc3)C2)c1Cl [Example 8.116] | 6.33
61 | CC(=O)N[C@@H](C)c1ccc(O[C@@H]2CCN(c3ncnc(N4CCOCC4)c3Cl)C2)cc1 [Example 8.117] | 6.31
62 | CCNc1ncnc(N2CC[C@@H](Oc3ccc([C@H](C)NC(C)=O)cc3)C2)c1F [Example 8.118] | 5.61
63 | CC(=O)N[C@@H](C)c1ccc(O[C@@H]2CCN(c3ncnc(NC4CCCC4)c3F)C2)cc1 [Example 8.119] | 6.68
64 | CCCNc1ncnc(N2CC[C@@H](Oc3ccc([C@H](C)NC(C)=O)cc3)C2)c1F [Example 8.120] | 6.38
65 | CC(=O)N[C@@H](C)c1ccc(O[C@@H]2CCN(c3ncnc(NCC4CC4)c3F)C2)cc1 [Example 8.121] | 6.77
66 | CC(=O)N[C@@H](C)c1ccc(O[C@@H]2CCN(c3ncnc(N(C)CC4CCOC4)c3F)C2)cc1 (stereo partly shown) [Example 8.122] | 6.26
67 | CC(=O)N[C@@H](C)c1ccc(O[C@@H]2CCN(c3nc(N(C)C4CCCC4)ncc3Cl)C2)cc1 [Example 8.124] | 6.95
68 | CC(=O)N[C@@H](C)c1ccc(O[C@@H]2CCN(c3ncnc(N(C)C4CCCC4)c3F)C2)cc1 [Example 8.125] | 7.05
69 | CC(=O)N[C@@H](C)c1ccc(O[C@@H]2CCN(c3nc(N(C)CC4CC4)ncc3Cl)C2)cc1 [Example 8.126] | 7.24
70 | CC(=O)N[C@@H](C)c1ccc(O[C@@H]2CCN(c3nc(N4CCCCC4)ncc3Cl)C2)cc1 [Example 8.127] | 6.97
